Assay type in all cases: in vivo
The subject of data set [1] is Untersaaten in Mais. The experiment in a line: Pre-post selectivity: growth inhibition of undersown grasses (post-emergent) versus maize (pre-emergent). The text has this: Verbindungen der Formel I zeigen in vorteilhafter Weise eine "pre-post-Selektivität" bei verscheidenen Gräsern in Maiskulturen.
Die wuchshemmende Wirkung in Gräsern ist in postemergenter Applikation stark ausgeprägt, während bei gleichzeitiger Preemergenter Applikation Maispflanzen in ihrem Wuchs nur geringfügig gehemmt werden. Derartige "pre-post-Selektivitäten" erlauben somit die Aussaat von Mais in Gräsern. Dabei soll der Zeitpunkt für die Applikation der Aktivsubstanz der Formel so gewählt werden, dass die Aktivsubstanz postemergent für die Gräser ober preemergent für den Mais angewendet wird. In den ersten Wochen ist der Zuwachs der Gräser so stark gehemmt, dass die Maispflanze sich ungehindert entfalten kann.
Eine Mischung von Gräsern (z.B. Poa, Festuca, Lolium, Bromus, Cynosurus) werden in 15 cm - Kunststofftöpfen mit steriler Landerde angesät und im Gewächshaus bei einer Tagestemperatur von 21°C und einer Nachttemperatur von 17°C angezogen. Die Beleuchtungsdauer beträgt 13,5 Stunden/Tag bei einer Lichtintensität von mind. 7000 Lux. Nach dem Ablauf werden die Pflanzen wöchentlich auf ca. 6 cm Höhe zurückgeschnitten. Ca. 42 Tage nach der Saat und 1 Tag nach dem letzten Schnitt erfolgt die Applikation mit 60-500 g Wirkstoff/ha als wässrige Spritzbrühe. Die Wasseraufwandmenge ist ca. 500 I/ha.
20 Tage nach der Behandlung wird der Versuch ausgewertet. Hierbei wird die Höhe des Neuzuwachses gemessen und in % Hemmung zum Durchschnitt der unbehandelten Kontrollen dargestellt. Die nekrotischen Schäden sind in % zur gesamten Blattfläche aufgeführt.
Mais der Sorte Blizzard G188 werden in 15 cm - Kunststofftöpfen mit steriler gesiebter Landerde angesät und im Gewächshaus bei einer Tagestemperatur von 22°C und einer Nachttemperatur von 19°C aufgestellt. Die Beleuchtungsdauer beträgt mindestens 13,5 Stunden/Tag bei einer Lichtintensität von mindestens 7000 Lux. 1 Tag nach der Saat erfolgt die Applikation mit 60-500 g Wirkstoff/ha, in der Regel 25 %ig formuliert und in wässriger Spritzbrühe. Die Wasseraufwandmenge ist ca. 200 I/ha.
16 Tage nach der Behandlung wird der Versuch ausgewertet. […]

Data set [2] deals with Bromus tectorum. Kind of data set: Post-emergent herbicidal action, contact herbicide (B.3). The following applies: 500 bis 2000 [g/ha], 15 days after treatment. How it is done:
(§1) Im Gewächshaus wird unmittelbar nach der Einsaat der Versuchspflanzen in Saatschalen die Erdoberfläche mit einer wässrigen Dispersion der Wirkstoffe, erhalten aus einem 25 %igen Emulsionskonzentrat behandelt. Es werden Konzentrationen von 2000-500 g Wirksubstanz/Hektar angewendet. Die Saatschalen werden im Gewächshaus bei 22-25° C und 50-70 % relativer Luftfeuchtigkeit gehalten und der Versuch nach 3 Wochen ausgewertet und die Resultate nach folgender Notenskala ausgewertet. • 1 Pflanze hat nicht gekeimt oder ist eingegangen • 2-3 sehr starke Schäden • 4 starke Schäden • 5 mittlere Schäden, die Pflanzen sind verkümmert • 6 Schäden, die Pflanze kann regenerieren • 7-8 leichte Schäden • 9 normales Wachstum, wie das unbehandelter Pflanzen
(§2) Boniturnoten von 1 bis 4 (insbesondere von 1 bis 3) weisen auf eine gute bis sehr gute Herbizidwirkung hin. Boniturnoten von 6 bis 9 (insbesondere 7 bis 9) weisen auf eine gute Toleranz (insbesondere bei Kulturpflanzen) hin.
(§3) Eine Anzahl Unkräuter, sowohl monokotyle wie dikotyle, werden nach dem Auflaufen (im 4- bis 6-Blattstadium) mit einer wässrigen Wirkstoffdispersion in einer Dosierung von 2000-500 g Wirksubstanz pro Hektar auf die Pflanzen gespritzt und diese bei 24°-26°C und 45-60 % relativer Luftfeuchtigkeit gehalten. 15 Tage nach der Behandlung wird der Versuch nach dem in Beispiel B.2. gegebenen Massstab bewertet.

Data set [3] has as its system Chrysanthe. leuc. The data set is described as above. Particulars: 500 bis 2000 [g/ha], 15 days after treatment. On the procedure:
as §1, §2, §3

The subject of data set [4] is Stellaria. Described as above. The following applies: 500 bis 2000 [g/ha], 15 days after treatment. How it is done:
as §1, §2, §3

Data set [5] relates to Digitaria sang. The data set is described as above. Particulars: 500 bis 2000 [g/ha], 15 days after treatment. How it is done: as §1, §2, §3
The test system of data set [6] is Chenopodium Sp. The data set is described as above. Particulars: 500 bis 2000 [g/ha], 15 days after treatment. How it is done: as §1, §2, §3
Data set [7] relates to Solanum nigrum. The description is as above. The following applies: 500 bis 2000 [g/ha], 15 days after treatment. On the procedure: as §1, §2, §3
Data set [8] concerns Sinapis. The data set is described as above. The following applies: 500 bis 2000 [g/ha], 15 days after treatment. How it is done: as §1, §2, §3
The subject of data set [9] is Galium aparine. The description is as above. The following applies: 500 bis 2000 [g/ha], 15 days after treatment. How it is done:
as §1, §2, §3

The test system of data set [10] is Amaranthus ret. The description is as above. Particulars: 500 bis 2000 [g/ha], 15 days after treatment. How it is done: as §1, §2, §3
For data set [11], the system named is Xanthium Sp. Described as above. The following applies: 500 bis 2000 [g/ha], 15 days after treatment. On the procedure:
as §1, §2, §3

Data set [12] deals with Lolium perenne. The description is as above. Particulars: 500 bis 2000 [g/ha], 15 days after treatment. How it is done: as §1, §2, §3
The test system of data set [13] is Veronica Sp. Described as above. Particulars: 500 bis 2000 [g/ha], 15 days after treatment. On the procedure: as §1, §2, §3
For data set [14], the system named is Abutilon. The data set is described as above. The following applies: 500 bis 2000 [g/ha], 15 days after treatment. How it is done: as §1, §2, §3
In data set [15] the test system is Avena fatua. The data set is described as above. The following applies: 500 bis 2000 [g/ha], 15 days after treatment. On the procedure:
as §1, §2, §3

Data set [16] has as its system Echinochloa crus galli. The description is as above. The following applies: 500 bis 2000 [g/ha], 15 days after treatment. How it is done: as §1, §2, §3
In data set [17] the test system is Alopecurus myos. Described as above. The following applies: 500 bis 2000 [g/ha], 15 days after treatment. How it is done:
as §1, §2, §3

The subject of data set [18] is Sorghum halep. Described as above. Particulars: 500 bis 2000 [g/ha], 15 days after treatment. On the procedure: as §1, §2, §3
The subject of data set [19] is Soja. The experiment in a line: Post-emergent herbicidal action (B.3), crop tolerance. The following applies: 500 bis 2000 [g/ha], 15 days after treatment. How it is done:
as §1, §2, §3

Data set [20] deals with Baumwolle. The data set is described as above. Particulars: 500 bis 2000 [g/ha], 15 days after treatment. How it is done:
as §1, §2, §3

The structures appear in SMILES notation.

Turning to `CC(C)C1(C)NC(c2nc3c(cc2C(=O)O)C(C)(C)CCC3)=NC1=O` (stereo not drawn) [Verbindung 2.12, 2-(5-Isopropyl-5-methyl-1 H-imidazol-4-on-2-yl)-5,5-dimethyl-5,6,7,8-tetrahydrochinolin-3-carbonsäure], the “"pre-post-Selektivität" bei Untersaaten in Mais” value in [1] is listed as “ausgeprägter "pre-post-Selektivität"”.
`CC1CCc2nc(C3=NC(=O)C(C)(C(C)C)N3)c(C(=O)O)cc21` (stereo not drawn) [Verbindung 2.06, 7H-5,6-Dihydro-2-(5-isopropyl-5-methyl-1 H-imidazol-4-on-2-yl)-5-methyl-1-pyrindin-3-carbonsäure]: the Herbizidwirkung entry in [2], in data set [3], in data set [4], in data set [5], in data set [6] and in data set [7] was “gute bis sehr gute Herbizidwirkung (Boniturnoten von 1 bis 4 (insbesondere von 1 bis 3) weisen auf eine gute bis sehr gute Herbizidwirkung hin)” in each case. The Herbizidwirkung result in data set [8], in data set [9], in data set [10], in [11], in data set [12] and in data set [13] was “gute bis sehr gute Herbizidwirkung (Boniturnoten von 1 bis 4 (insbesondere von 1 bis 3) weisen auf eine gute bis sehr gute Herbizidwirkung hin)” each time. Also, the Herbizidwirkung entry in data set [14], in data set [15], in [16], in [17] and in data set [18] was “gute bis sehr gute Herbizidwirkung (Boniturnoten von 1 bis 4 (insbesondere von 1 bis 3) weisen auf eine gute bis sehr gute Herbizidwirkung hin)” each time. The “Toleranz (im Wachstum beeinflusst)” value in data set [19] and in data set [20] was “gute Toleranz (Boniturnoten von 6 bis 9 (insbesondere 7 bis 9) weisen auf eine gute Toleranz (insbesondere bei Kulturpflanzen) hin)” throughout.
As for `CC1CCc2cc3c(nc2C1)C1=NC(C)(C(C)C)C(=O)N1C3=O` (stereo not drawn) [Verbindung 3.03, 2,9-Dimethyl-2-isopropyl-7,8,9,10-tetrahydro-3H,5H-imidazo[1',2':1,2]pyrrolo[3,4-b]chinolin-3,5-dion], the “"pre-post-Selektivität" bei Untersaaten in Mais” value in [1] is listed as “ausgeprägter "pre-post-Selektivität"”.

For the origin of these results see patent EP0327492A1, “Herbicidally and plantgrowth regulatory active quinoline and pyrindine compounds” (CIBA-GEIGY AG, priority 1988, dated 1989).
